Experimental data taken from patent US20080235828A1 (University of Manitoba, priority 2004, published 2008).
Where a chain is given by its changes, count along the chain named.

Experiments:
[1] = target: T1, FCA protein (Arabidopsis thaliana, UniProt O04425); test: ABA binding assay with purified recombinant FCA; design: Kd; other: analog added in higher concentrations than 3H+-ABA (20-5000 nM); other: Scatchard analysis, r^2=0.88; other: in presence of 5 μM unlabelled (+)-ABA; pH range of maximum; fused on or other part: GST fused on for purification
T1 sequence (O04425 1-747 isoform O04425-1): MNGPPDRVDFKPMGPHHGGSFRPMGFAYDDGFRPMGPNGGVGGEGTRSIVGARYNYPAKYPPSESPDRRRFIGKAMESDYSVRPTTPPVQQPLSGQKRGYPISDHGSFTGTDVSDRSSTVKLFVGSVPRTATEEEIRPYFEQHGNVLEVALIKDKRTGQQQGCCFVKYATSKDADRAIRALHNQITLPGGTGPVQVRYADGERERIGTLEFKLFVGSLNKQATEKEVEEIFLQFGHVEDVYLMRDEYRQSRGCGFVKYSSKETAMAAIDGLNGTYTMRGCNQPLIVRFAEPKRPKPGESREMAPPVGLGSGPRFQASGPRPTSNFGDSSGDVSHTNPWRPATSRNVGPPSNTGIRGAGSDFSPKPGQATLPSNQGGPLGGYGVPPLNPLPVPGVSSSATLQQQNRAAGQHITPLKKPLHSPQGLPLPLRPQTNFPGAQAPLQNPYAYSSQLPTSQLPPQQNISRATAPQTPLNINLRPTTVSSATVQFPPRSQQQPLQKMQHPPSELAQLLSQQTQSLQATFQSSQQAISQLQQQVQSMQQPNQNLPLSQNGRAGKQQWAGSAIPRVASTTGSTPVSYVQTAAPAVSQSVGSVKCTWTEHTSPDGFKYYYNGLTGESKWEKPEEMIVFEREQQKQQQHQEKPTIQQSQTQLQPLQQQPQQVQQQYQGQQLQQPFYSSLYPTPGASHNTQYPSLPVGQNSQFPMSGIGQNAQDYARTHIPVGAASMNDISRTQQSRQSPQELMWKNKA
Protocol: […] The mixture was then rapidly filtered through a nitrocellulose membrane, washed with 0.5× binding buffer, air dried and counted in a scintillation counter (Wallac 1414 WinSpectral v1.40). Heat denatured FCA protein was used to used determine the protein nature of the FCA and BSA was used as a control. All binding studies were carried out using three different GST affinity chromatography protein purifications with triplicate assays for each purification. […] Specific binding was calculated by taking the difference for assays with only ^3H^+-ABA (total binding) and assays that also contained 5 μM (±)-ABA added at the same time as ^3H^+-ABA (non-specific binding). Binding was represented as the number of moles of ^3H^+-ABA per mole of FCA protein.

[2] = target: T2, FCA-WF protein (Arabidopsis thaliana, UniProt O04425, W619F); test: ABA binding assay with FCA-WF (mutated WW domain); conditions: mutation in the second W of WW domain
T2 sequence (O04425 1-747 W619F): T1 sequence (O04425 1-747 isoform O04425-1) with W619F
Protocol: (§1) The GST:FCA-WW-FY interaction mixture was incubated for 90 minutes before 1 μM ^3H^+-ABA was added and the mixture pelletted, washed, and the dual activity for [^35S]-met-FY and ^3H^+-ABA were counted as described above.
Similarly, FCA-WF protein was used and binding assays were carried out as above. […] The FCA ^3H^+-ABA binding activity in the absence of FY reached approximately 50% saturation at 15 minutes and approximately 95% saturation at 45 minutes. Each data point represents triplicate assays and error bars represent standard deviation.

[3] = tested on: GST:FCA-WW-FY; test: ABA binding to and dissociation of pre-formed FCA-FY complex; design: species or system Arabidopsis
Protocol: as §1

abscisic acid [ABA]
binding corresponding to 100% binding activity ([1]; 50 nM 3H-(+)-ABA, FIG. 16): approximately 0.52 mol ABA mol^−1 protein
maximum binding ([1]; Scatchard analysis, r^2=0.88): 0.72 mol mol^−1 protein
ratio of ABA bound to FCA ([1]; Scatchard plot): approximately 0.72 mol ABA mol^−1 protein
non-specific binding ([1]; in presence of 5 μM unlabelled (+)-ABA): less than 11 % of the total binding
3H+-ABA binding ratio relative to non-mutated FCA-WW protein [2]: virtually a similar ratio
disruption of FCA-FY complex (displacement of FY) [3]: capable of disrupting the FCA-FY complex
ABA binding activity of pre-formed FCA-FY complex ([3]; 1 μM 3H+-ABA added after 90 min FCA-FY incubation): initially low but significantly increased after 45 minutes
